Experimental data taken from paper PMC9028219 (Frontiers in Nutrition, 2022).
Where two headings read alike, the source gives them in different places.

How the values were obtained:
Lipoxygenase-5 (LOX-5) = Lipoxygenase-5 (LOX-5) (Homo sapiens, UniProt P09917); experiment: LOX-5 activity assay in cell lysate
Protocol: (§4) Cyclooxygenase-2 (COX-2) activity was measured as reported by Kulmaczand Lands ([33]). The reaction cocktail consists of Tris-HCl buffer (100 mM and pH 8.0), EDTA (3 μM), hematin (15 μM), and cell lysate. After incubation, arachidonic acid (AA) and N,N,N′,N′-tetra methyl-p-phenylenediamine (TMPD) was added to 96 well plates to initiate the reaction. The reaction mixture was immediately auto mixed using the Multiscan Go of Thermo Scientific spectrophotometer, and absorbance was measured at 590 nm ([33]). The enzyme inhibition was calculated concerning control. […] Approximately 40 μM of AA was mixed to initiate the reaction, and the plate was kept for 4 min at room temperature. The reaction was terminated by adding an equal ratio of reagent 1 (4.5 mM FeSo4 in HCl) and reagent 2 (3% NH4SCN). The absorbance was taken at 480 nm using a spectrophotometer ([34]). The enzyme inhibition was compared concerning control.

Cyclooxygenase-2 (COX-2) = Cyclooxygenase-2 (COX-2) (Homo sapiens, UniProt P35354); experiment: COX-2 activity assay in cell lysate; details: A549, 100 μM
Protocol: as §4

FaDu cells [1] = experiment: Mitochondrial membrane potential (Rhodamine 123); assay type: cell-based, human
Protocol: (§1) The cell cycle analysis was carried out by the protocol reported by Fatima et al. ([40]). The cell lines were fixed with 70% ethanol. Before analysis, fixed cells were washed at least two times with PBS and PI solution containing RNase A to stain the cells. The samples were run on a flow cytometer within 1 h. Treated FaDu cells were incubated with 10 μM of DCFH-DA dye for 30 min then fluorescence was measured at 485/530 nm of […]. For FACS analysis, treated cells were incubated with 10 μM of DCFH-DA dye for 30 min, and the samples were analyzed within 1 h ([41]). The protocol for the analysis of MMP was similar to that of DCFH-DA except for Rhodamine 123 dye ([41]). The experiment was also carried out as per the method reported in Annexin-V-FITC apoptosis detection kit I (BD Pharmingen^TM, Catalog No. 556547). For the assay, 1 × 10^6 cells were grown in 6 well plates and treatment was given 24 h. The next day, cells were washed with cold PBS, and the pellet was resuspended in 100 μl (1X binding) buffer and left for 15 min followed by incubation with a dual fluorescent dye (5 μl FITC and 5 μl PI) for 10 min. The cell suspension was maintained upto 500 μl from the 1X binding buffer. The stained cells were analyzed by flow cytometer within 1 h ([42]).

FaDu cells [2] = experiment: Annexin V-FITC/PI apoptosis assay; assay type: cell-based, human
Protocol: as §1

K562 = experiment: SRB anti-proliferative assay; assay type: cell-based; details: Homo sapiens, K562, 72 h
Protocol: (§2) The cell lines used for the present study were K562 (erythroid leukemia), COLO-205 (colon carcinoma), FaDu (hypopharyngeal carcinoma), MCF-7 (breast ER+ve adenocarcinoma), WRL-68 (hepatocellular carcinoma), A549 (lung carcinoma), and HEK-293 (embryonic kidney). These cell lines were purchased from the National Center for Cell Sciences (NCCS), Pune, India, except FaDu, which Dr. Sarkar endowed from CSIR-Central Drug Research Institute, Lucknow, Uttar Pradesh, India.
(§3) The SRB assay was carried out by following the method reported by Skehan et al. ([27]) with a slight modification ([28]). In 96 well plates, approximately ~2 ×10^3 cells per well were seeded. […] Approximately 20% of TCA was added in treated plates to precipitate cellular proteins, followed by washing cells with tap water and adding 10 μl SRB dye (0.4%) in each well of the plate. Then, the plate was washed with 1% acetic acid to remove the unbound dye. The bound dye was dissolved in 200 μl tris base (10 mM). The absorbance was finally measured at 515 nm using a spectrophotometer (Multiskan^TM Go SkanIt Software, version 4.0, Thermo Fisher Scientific, Waltham, MA, USA).

FaDu [3] = experiment: SRB anti-proliferative assay; assay type: cell-based; details: Homo sapiens, 72 h
Protocol: as §2, §3

FaDu cells [4] = experiment: Cell cycle analysis (PI, flow cytometer); assay type: cell-based, human; details: PI staining
Protocol: as §1

[5] = biological target: T1, Ornithine decarboxylase (ODC) (Homo sapiens, UniProt P11926); experiment: ODC activity assay in lysate of treated cells; assay type: cell-based; details: A549, 100 μM
T1 construct: endogenous in cells; host or cells: A549
Protocol: The ODC activity was determined by the modified method reported by Luqman et al. ([32]). Approximately 10 μg of cell lysate was added to the reaction cocktail (2.5 mM β-mercaptoethanol, 1.5 mM EDTA, 75 nM pyridoxal-phosphate, 3 mM L-ornithine hydrochloride in 150 mM potassium phosphate buffer, and pH 7.1). Approximately, 400 μl of 1 M perchloric acid was used to terminate the reaction, and NaOH (4N) was added to the supernatant. Further, 1-pentanol was added after centrifugation. Then, the upper organic phase was transferred to a microcentrifuge tube with 200 μl sodium borate, 200 μl TNBS, and 400 μl DMSO. Further, it was centrifuged, and 60 μl of supernatant was taken in plate, and absorbance was measured at 412 nm. The graph was plotted in the terms of percentage inhibition.

[6] = tested on: Sarcoma-180 (S-180) tumor; details: for Tumor growth inhibition: days 1-9, evaluated day 12; for Tumor cell count Mean ± S.E / Tumor volume Mean ± S.E / Tumor weight Mean ± S.E: days 1-9, evaluated day 12, n = 5
Protocol: The S-180 cells were collected from Swiss albino mice harboring 8–10 days old cells from the peritoneal cavity. On day 0, the S-180 cells (1 × 10^7 cells/ml) were injected intra-peritoneal in non-inbred female Swiss albino mice (22–25 g, 8–10 weeks old) selected for the experiment. The next day (Day 1), the animals were randomized and divided into three treatment groups, one positive control group and one vehicle control group containing 5 animals in each group. […] The fourth group was given 5-fluorouracil; positive control at a dose of 20 mg/kg bw i.p. from day 1–9, and the fifth group (control) was administered normal saline (0.2 ml i.p.) for 9 days. On day 12, the animals were sacrificed, and the fluid was collected from each mouse's peritoneal cavity to evaluate tumor growth ([43]). The tumor growth inhibition was calculated using the following formula.
Tumor Growth Inhibition(%)=(Number of tumor cells in control group-Number of tumor cells in the test group)/Number of tumor cells in the control group×100

Hyaluronidase (HYAL) = experiment: HYAL activity assay in cell lysate; assay type: cell-based, human
Protocol: Protein was estimated by nanodrop before being used for the enzyme assays.
The HYAL assay was performed by the standard reported protocol ([35]). Approximately 10 μg of cell lysate added in enzyme diluent buffer (77 mM sodium chloride, 20 mM sodium phosphate, 0.01% albumin, and pH 7.0 at 37°C). The reaction mixture was incubated for 45 min after adding HA (substrate). The mixture was distributed in three parts, each well of the plate containing 25 μl followed by the addition of 125 μl of diluent buffer (79 mM acetic acid, 24 mM sodium acetate, 0.1% albumin bovine, and pH 3.75). The absorbance was measured at 600 nm after 10 min incubation. The graph was shown in the terms of percentage inhibition. Hemoglobin was used as a substrate to determine CATD activity ([36]). Cell lysate (10 μg) was incubated with a reaction cocktail (2.5% of hemoglobin, deionised water, 400 mM citrate buffer, and pH 2.8) for 30 min at 37°C; the reaction was terminated by adding 5% TCA. Then, 200 μl of supernatant was taken in plate after centrifuge and absorbance were measured at 280 nm.

FaDu [7] = experiment: NRU anti-proliferative assay; assay type: cell-based, human
Protocol: as §2
The NRU assay was carried out by Babich and Borenfreund ([29]) method. Similar to the SRB assay, 5 μl NRU dye was added to the treated plate. Then, cells were washed with fixative solution after 3 h of incubation; further, the bound dye was solubilized in a dissolving solution. The absorbance was measured at 540 nm ([29]).

[8] = higher concentration (4 x IC50), 24 h

Lipoxygenase-5 (LOX-5), sequence (P09917 whole entry): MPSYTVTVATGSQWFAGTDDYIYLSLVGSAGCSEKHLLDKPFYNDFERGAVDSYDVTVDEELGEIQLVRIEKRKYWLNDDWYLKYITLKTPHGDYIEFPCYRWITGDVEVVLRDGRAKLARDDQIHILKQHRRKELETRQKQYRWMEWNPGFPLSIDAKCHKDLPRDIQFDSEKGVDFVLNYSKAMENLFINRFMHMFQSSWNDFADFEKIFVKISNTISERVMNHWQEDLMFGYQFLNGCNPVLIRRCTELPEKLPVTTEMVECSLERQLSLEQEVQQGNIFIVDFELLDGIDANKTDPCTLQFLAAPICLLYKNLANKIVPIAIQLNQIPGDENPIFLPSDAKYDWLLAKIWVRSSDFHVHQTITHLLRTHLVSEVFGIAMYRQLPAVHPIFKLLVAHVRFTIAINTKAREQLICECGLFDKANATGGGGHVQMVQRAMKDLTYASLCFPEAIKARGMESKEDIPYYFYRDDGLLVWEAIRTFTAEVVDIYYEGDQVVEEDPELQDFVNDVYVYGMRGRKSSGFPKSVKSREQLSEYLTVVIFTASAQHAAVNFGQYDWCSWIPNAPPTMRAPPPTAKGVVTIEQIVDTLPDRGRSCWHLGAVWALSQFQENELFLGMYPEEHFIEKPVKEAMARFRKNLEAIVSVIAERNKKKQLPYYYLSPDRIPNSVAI
T1 sequence (P11926 whole entry): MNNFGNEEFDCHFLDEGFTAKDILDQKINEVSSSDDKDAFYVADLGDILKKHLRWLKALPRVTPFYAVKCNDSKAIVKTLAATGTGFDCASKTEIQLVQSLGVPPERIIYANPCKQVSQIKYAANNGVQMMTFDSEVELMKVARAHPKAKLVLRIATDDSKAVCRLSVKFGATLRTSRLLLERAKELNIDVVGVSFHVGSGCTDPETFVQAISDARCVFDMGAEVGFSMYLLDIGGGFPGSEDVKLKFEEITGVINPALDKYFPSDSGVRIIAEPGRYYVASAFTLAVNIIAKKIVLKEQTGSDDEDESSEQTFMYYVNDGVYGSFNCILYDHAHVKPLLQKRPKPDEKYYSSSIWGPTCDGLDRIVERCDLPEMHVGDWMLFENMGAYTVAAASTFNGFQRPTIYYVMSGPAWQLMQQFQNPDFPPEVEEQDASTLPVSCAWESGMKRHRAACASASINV
Cyclooxygenase-2 (COX-2), sequence (P35354 18-604): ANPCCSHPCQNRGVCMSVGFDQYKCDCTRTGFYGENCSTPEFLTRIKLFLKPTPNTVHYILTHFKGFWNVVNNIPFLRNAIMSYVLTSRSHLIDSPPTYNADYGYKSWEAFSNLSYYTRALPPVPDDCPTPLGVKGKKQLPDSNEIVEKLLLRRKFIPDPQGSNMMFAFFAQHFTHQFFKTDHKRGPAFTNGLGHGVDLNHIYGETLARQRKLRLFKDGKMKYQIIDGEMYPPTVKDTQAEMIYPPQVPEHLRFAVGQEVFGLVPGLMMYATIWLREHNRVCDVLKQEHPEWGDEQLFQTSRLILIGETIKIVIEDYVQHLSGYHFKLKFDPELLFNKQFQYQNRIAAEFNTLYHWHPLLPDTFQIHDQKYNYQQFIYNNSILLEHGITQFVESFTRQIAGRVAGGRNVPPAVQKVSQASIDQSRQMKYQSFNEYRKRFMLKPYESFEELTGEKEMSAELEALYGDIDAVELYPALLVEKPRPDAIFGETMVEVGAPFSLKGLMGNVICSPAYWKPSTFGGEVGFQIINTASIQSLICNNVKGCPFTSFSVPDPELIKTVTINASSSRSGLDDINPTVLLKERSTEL

## Cc1ccc(C(C)C)cc1O [carvacrol, 5-isopropyl-2-methyl phenol]
Lipoxygenase-5 (LOX-5); A549
  suppression of LOX-5 activity: < 50%
Lipoxygenase-5 (LOX-5); K562
  suppression of LOX-5 activity: < 50%
Cyclooxygenase-2 (COX-2)
  reduction of COX-2 activity: 13.33%
FaDu cells [1]
  mitochondrial membrane potential: diminishes the membrane potential of the FaDu cell line at the tested concentrations
FaDu cells [2]; Annexin V-FITC and PI
  significance of effect on apoptosis and necrosis: non-significant
FaDu cells [2]; [8]
  early apoptosis (A+/P-): 0.1%
  late apoptosis (A+/P+): 1.4%
  necrosis (A-/P+): 3.4%
K562
  IC50: 81.3 ± 11.8 µM
FaDu [3]
  IC50: 42 ± 11.4 µM
FaDu cells [4]
  cell cycle phase arrest: arrests the G2/M phase of FaDu cells in a dose-dependent manner
  sub-diploid population: raises the sub-diploid population number
[5]
  reduction of ODC activity: 35.68%
[6]; 25 mg/kg bw i.p.
  Tumor growth inhibition: 28.12%
  Tumor cell count Mean ± S.E: 57.5 ± 8.72 1 × 10^7
  Tumor volume Mean ± S.E: 3.5 ± 0.54 mL
  Tumor weight Mean ± S.E: 3.36 ± 0.60 g
[6]; 50 mg/kg bw i.p.
  Tumor growth inhibition: 55.94%
  Tumor cell count Mean ± S.E: 35.25 ± 4.68^** 1 × 10^7
  Tumor volume Mean ± S.E: 1.57 ± 0.25 mL
  Tumor weight Mean ± S.E: 1.39 ± 0.33 g
[6]; 75 mg/kg bw i.p.
  Tumor growth inhibition: 72.62%
  Tumor volume Mean ± S.E: 1.16 ± 0.34 mL
  Tumor weight Mean ± S.E: 1.10 ± 0.41 g
[6]; 75, 50 and 25 mg/kg bw i.p.
  effect on mice bw: no adverse effect
[6]; during the experimental period
  mortality: no mortality was noticed
Hyaluronidase (HYAL); A549, 100 μM
  reduction of HYAL enzyme action: 39.15%
Hyaluronidase (HYAL); FaDu
  IC50: 88.1 ± 10.4 µM
Hyaluronidase (HYAL); K562
  IC50: 62 ± 8.4 µM
FaDu [7]
  growth inhibition: 35.32 ± 2.85%
